From ChEMBL document CHEMBL1150699, “Characterization of an anti-tuberculosis resin glycoside from the prairie medicinal plant Ipomoea leptophylla” (2003)
The source made the active and inactive calls. The calls are words filed in the database; no cut-off is given here.

Test system: Mycobacterium tuberculosis
Assay: Antitubercular activity against Mycobacterium tuberculosis H37Rv at 6.25 ug/ml by BACTEC 460 radiometric assay
Type: functional

Row | Compound | inhibition at 6.25 µg/mL [%] | Activity
1 | CCCCCCCCCCCC(=O)O[C@H]1[C@H](O[C@@H]2[C@@H](O)[C@H]3OC(=O)CCCCCCCCC[C@H](CCCCC)O[C@@H]4O[C@H](C)[C@H](O)[C@H](O)[C@H]4O[C@@H]3O[C@H]2C)O[C@@H](C)[C@H](O[C@@H]2O[C@@H](C)[C@H](OC(=O)CC)[C@@H](O)[C@H]2OC(=O)/C=C/c2ccccc2)[C@H]1O[C@@H]1O[C@H](CO)[C@@H](O)[C@H](O)[C@H]1O | 13 | 
2 | CCCCCCCCCCCC(=O)O[C@H]1[C@H](O[C@@H]2[C@@H](O)[C@H]3OC(=O)CCCCCCCCC[C@H](CCCCC)O[C@@H]4O[C@H](C)[C@H](O)[C@H](O)[C@H]4O[C@@H]3O[C@H]2C)O[C@@H](C)[C@H](O[C@@H]2O[C@@H](C)[C@H](OC(=O)CC)[C@@H](O)[C@H]2O)[C@H]1O[C@@H]1O[C@H](CO)[C@@H](O)[C@H](O)[C@H]1O |  | inactive
3 | CCCCC[C@@H](CCCCCCCCCC(=O)O)O[C@@H]1O[C@H](C)[C@H](O)[C@H](O)[C@H]1O[C@@H]1O[C@@H](C)[C@H](O[C@@H]2O[C@@H](C)[C@H](O[C@@H]3O[C@@H](C)[C@H](O)[C@@H](O)[C@H]3O)[C@@H](O)[C@H]2O[C@@H]2O[C@H](CO)[C@@H](O)[C@H](O)[C@H]2O)[C@@H](O)[C@H]1O |  | inactive
4 | CCCCCCCCCCCC(=O)O[C@H]1[C@H](O[C@@H]2[C@@H](OC)[C@H]3OC(=O)CCCCCCCCC[C@H](CCCCC)O[C@@H]4O[C@H](C)[C@H](OC)[C@H](OC)[C@H]4O[C@@H]3O[C@H]2C)O[C@@H](C)[C@H](O[C@@H]2O[C@@H](C)[C@H](OC(=O)CC)[C@@H](OC)[C@H]2OC(=O)/C=C/c2ccccc2)[C@H]1O[C@@H]1O[C@H](COC)[C@@H](OC)[C@H](OC)[C@H]1OC |  | inactive
